According to US20120225889A1, “USE OF MACROCYCLIC LACTONE DERIVATIVES FOR THE TREATMENT OF INFLAMMATORY DISORDERS” (PIRAMAL LIFE SCIENCES LIMITED, priority 2010, published 2012):

Key:
[1] = system: IL-6; experiment: hPBMC membrane-monocyte contact bioassay: IL-6; type: cell-based; conditions: Homo sapiens, monocytes, 24 h, read-out: inhibition of activated hPBMC mediated IL-6 production
Source text: The assay was designed as in reference, Immunology Letters, 117, 114-118, (2008), the disclosure of which is incorporated by reference for the teaching of the assay. Activated T cell contact-mediated monocyte activation, leading to the production of proinflammatory cytokines (e.g., TNF-α, IL-6), contributes to the pathogenesis of chronic inflammatory diseases including rheumatoid arthritis.
6-well plates (Nunc, USA) were coated with Goat anti-Mouse IgG, Fc (Chemicon, USA) at a concentration of 16.5 μL/mL in coating buffer ([…] NaHCO3, 3.56 g Na2CO3, pH 9.5).
The plates were incubated overnight at 4° C. under sterile conditions. […]
Following incubation, hPBMCs in separate wells of the 6-well plate were harvested, pooled together, and centrifuged. […] The pellet of hPBMC membranes was resuspended in lysis buffer (Sigma, USA) and the protein concentration was determined by the method of Bradford (Sigma, USA).
100 μL monocytes per well at 5×10^5 cells/mL were added to the 96-well plate (Nunc, USA) and cultured for 48 h at 37° C. […] Supernatants were collected after 24 h and TNF-α and IL-6 production was measured using OptiEIA ELISA sets, (BD BioSciences, USA). […]

[2] = system: TNF-α; experiment: Human monocyte assay (LPS-induced): TNF-α; type: cell-based; conditions: LPS stimulated human monocytes, 5 h
Source text: The assay was designed as in reference, Physiological Research, 52, 593-598, (2003), the disclosure of which is incorporated by reference for the teaching of the assay.
The objective of the assay is to determine whether compounds of the present invention—mediated inhibition of LPS-induced cytokines from monocytic THP-1 cell line translates to physiologically relevant human cells. Accordingly, the effect of compounds of the present invention on LPS—induced cytokine production from freshly isolated human monocytes was ascertained.
Peripheral blood was collected from healthy donors into potassium EDTA vacutainer tubes (BD Biosciences, USA). hPBMCs were isolated using density gradient separation (Histopaque-1077; Sigma, USA) and suspended in assay medium which is RPMI culture medium (Sigma, USA) containing 10% heat inactivated FBS (JRH Biosciences, Australia), 100 U/mL penicillin (Sigma, USA) and […] streptomycin (Sigma, USA). Monocytes in the hPBMCs were counted using a Coulter Counter following which the cells were resuspended at 2×10^5 monocytes/mL of assay medium. A cell suspension containing 2×10^4 monocytes was aliquoted per well of a 96-well plate (Nunc, USA). Subsequently, the hPBMCs were incubated for 4-5 h at 37° C., 5% CO2. […] The IC50 values were calculated by a nonlinear regression method using Graph Pad software (Prism 3.03).

C/C=C/C(O)C(C)/C=C/C(=N\O)C(C)C(O)C(C)C1OC(=O)/C(OC)=C/C(C)=C/C(C)C(O)C(CC)C(O)C(C)C/C(C)=C/C=C/C1OC (stereo not drawn) [Compound of example 7, (3Z,5E,13E,15E)-18-((5Z,6E,10E)-3,9-Dihydroxy-5-(hydroxymino)-4,8-dimethyldodeca-6,10-dien-2-yl)-9-ethyl-8,10-dihydroxy-3,17-dimethoxy-5,7,11,13-tetramethyl oxacyclooctadeca-3,5,13,15-tetraen-2-one] was tested, and the inhibition at 0.3 µM ([1]; at 0.3 μM) was 66%, the inhibition at 0.5 µM ([1]; at 0.5 μM) was 100% and the IC50 [2] was 10 µM.
